Results from patent US8664379B2, “Fused heterocyclic compounds as ion channel modulators” (Gilead Sciences, Inc., priority 2008, dated 2014).

These compounds were tested against wild-type human cardiac sodium channel, hNav1.5 (late sodium current) (Homo sapiens, UniProt Q14524) (assay: Late INa screening assay (PatchXpress whole cell patch clamp)). Conditions: 1 μM test compound; HEK293 cells expressing hNav1.5; late INa generated with 10 μM Tefluthrin (some experiments 50 nM ATX II).
Sequence of wild-type human cardiac sodium channel, hNav1.5 (late sodium current) (Q14524 whole entry): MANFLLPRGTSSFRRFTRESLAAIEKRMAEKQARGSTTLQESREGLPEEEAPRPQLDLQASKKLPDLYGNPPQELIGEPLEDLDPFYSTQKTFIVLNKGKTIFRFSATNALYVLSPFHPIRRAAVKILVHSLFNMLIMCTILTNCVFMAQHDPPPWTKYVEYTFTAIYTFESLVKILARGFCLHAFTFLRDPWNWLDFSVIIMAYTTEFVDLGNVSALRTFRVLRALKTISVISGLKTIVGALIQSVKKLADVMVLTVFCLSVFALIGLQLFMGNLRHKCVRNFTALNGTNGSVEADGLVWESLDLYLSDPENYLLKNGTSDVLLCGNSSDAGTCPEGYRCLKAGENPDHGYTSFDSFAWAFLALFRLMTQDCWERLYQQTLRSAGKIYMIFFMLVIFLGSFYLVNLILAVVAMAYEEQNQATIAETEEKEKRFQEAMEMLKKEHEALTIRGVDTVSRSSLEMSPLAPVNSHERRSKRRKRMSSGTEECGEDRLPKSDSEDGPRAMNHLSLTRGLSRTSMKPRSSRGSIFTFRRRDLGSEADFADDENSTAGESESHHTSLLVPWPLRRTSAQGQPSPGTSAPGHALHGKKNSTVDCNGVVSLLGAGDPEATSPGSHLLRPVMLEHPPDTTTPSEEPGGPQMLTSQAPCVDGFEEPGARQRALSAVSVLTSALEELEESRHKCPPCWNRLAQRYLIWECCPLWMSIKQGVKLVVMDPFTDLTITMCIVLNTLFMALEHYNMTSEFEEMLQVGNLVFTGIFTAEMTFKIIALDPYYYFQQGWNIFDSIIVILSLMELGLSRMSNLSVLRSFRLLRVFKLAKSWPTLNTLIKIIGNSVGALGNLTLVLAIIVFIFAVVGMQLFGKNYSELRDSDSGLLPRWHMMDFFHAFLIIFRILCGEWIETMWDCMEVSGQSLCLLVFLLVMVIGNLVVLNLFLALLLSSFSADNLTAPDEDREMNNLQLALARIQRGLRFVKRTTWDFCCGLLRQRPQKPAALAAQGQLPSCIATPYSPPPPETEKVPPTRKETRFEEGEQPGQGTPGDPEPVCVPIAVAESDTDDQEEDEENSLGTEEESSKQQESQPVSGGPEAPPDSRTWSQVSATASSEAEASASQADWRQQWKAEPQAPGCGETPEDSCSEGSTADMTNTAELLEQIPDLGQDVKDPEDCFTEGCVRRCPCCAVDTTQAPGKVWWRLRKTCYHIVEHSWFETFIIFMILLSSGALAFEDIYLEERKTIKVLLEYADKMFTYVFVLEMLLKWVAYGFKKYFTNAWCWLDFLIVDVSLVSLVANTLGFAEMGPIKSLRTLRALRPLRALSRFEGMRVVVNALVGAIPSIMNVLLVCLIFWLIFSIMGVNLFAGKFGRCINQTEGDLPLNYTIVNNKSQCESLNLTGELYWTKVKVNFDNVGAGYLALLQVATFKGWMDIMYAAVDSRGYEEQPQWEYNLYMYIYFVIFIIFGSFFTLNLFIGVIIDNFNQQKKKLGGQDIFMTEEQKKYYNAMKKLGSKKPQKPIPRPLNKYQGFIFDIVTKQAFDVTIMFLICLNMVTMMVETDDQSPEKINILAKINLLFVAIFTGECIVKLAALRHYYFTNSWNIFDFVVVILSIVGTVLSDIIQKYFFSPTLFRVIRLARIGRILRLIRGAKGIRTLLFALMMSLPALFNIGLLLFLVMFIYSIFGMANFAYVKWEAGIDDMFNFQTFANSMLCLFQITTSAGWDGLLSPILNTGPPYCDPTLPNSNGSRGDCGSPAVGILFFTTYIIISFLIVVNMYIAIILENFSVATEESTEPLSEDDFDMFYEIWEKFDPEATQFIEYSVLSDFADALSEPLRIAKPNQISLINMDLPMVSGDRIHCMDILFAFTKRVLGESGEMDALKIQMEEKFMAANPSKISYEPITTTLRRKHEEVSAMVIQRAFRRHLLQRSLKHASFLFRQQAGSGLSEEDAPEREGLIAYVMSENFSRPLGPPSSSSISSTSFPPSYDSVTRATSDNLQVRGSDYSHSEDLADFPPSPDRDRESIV
Assay type: cell-based
Method: The late sodium current (Late INa) and peak sodium current (Peak INa) assays were performed on an automated electrophysiology platform, PatchXpress 7000A (MDS Analytical Technologies, Sunnyvale, Calif.), which uses the whole cell patch clamp technique to measure currents through the cell membrane of up to 16 cells at a time. The assay used an HEK293 (human embryonic kidney) cell line heterologously expressing the wild-type human cardiac sodium channel, hNav1.5, purchased from Millipore (Billerica, Mass.). No beta subunits were coexpressed with the Na channel alpha subunit. Cells were maintained with standard tissue culture procedures and stable channel expression was maintained with 400 μg/ml Geneticin in the culture medium. Cells isolated for use on PatchXpress were incubated for 5 minutes in Versene 1× and then for 2 minutes in 0.0125% Trypsin-EDTA (both at 37° C.) to ensure that 80-90% of the cells are single and not part of a cell cluster. Experiments were carried out at 24-27° C.
For both the Late INa and Peak INa assays, series resistance compensation was set to 50% and whole-cell compensation was performed automatically. Currents were low-pass filtered at 10 kHz and digitized at 31.25 kHz. Currents through open sodium channels were automatically recorded and stored in the DataXpress2 database (MDS Analytical Technologies, Sunnyvale, Calif.). Analysis was performed using DataXpress2 analysis software and data are compiled in Excel.
Compound stocks were routinely made in glass vials to 10 mM in dimethyl sulfoxide (DMSO). In some cases, when compounds were not soluble in DMSO, they were made in 100% ethanol. Stocks were sonicated as necessary. The extracellular solution for screening Late INa was composed of: 140 mM NaCl, 4 mM KCl, 1.8 mM CaCl2, 0.75 mM MgCl2, and 5 mM HEPES with pH adjusted to 7.4 using NaOH. The extracellular solution for screening Peak INa was composed of: 20 mM NaCl, 120 mM N-methyl-D glucamine, 4 mM KCl, 1.8 mM CaCl2, 0.75 mM MgCl2, and 5 mM HEPES with pH adjusted to 7.4 using HCl. The intracellular solution used to perfuse the inside of the cells for both the Late INa and Peak INa assays contains: 120 mM CsF, 20 mM CsCl, 5 mM EGTA, 5 mM HEPES and pH adjusted to 7.4 with CsOH. Compounds were diluted in extracellular solution to 10 μM in glass vials and then transferred to glass well plates before robotic addition to the cells. The 0Na extracellular solution used at the end of each experiment for the Late INa and Peak INa assays to measure baseline current contained: 140 mM N-methyl-D-glucamine; 4 mM KCl; 1.8 mM CaCl2; 0.75 mM MgCl2; 5 mM HEPES and pH was adjusted to 7.4 with HCl.
For the Late INa assay, sodium channels were activated every 10 seconds (0.1 Hz) by depolarizing the cell membrane to −20 mV for 250 milliseconds (ms) from a holding potential of −120 mV. In response to a −20 mV voltage step, typical Nav1.5 sodium currents activated rapidly to a peak negative current and then inactivated nearly completely within 3-4 ms.
All compounds were tested to determine their activity in blocking the late sodium current. Late INa current is generated by adding 10 μM Tefluthrin (pyrethroid) to the extracellular solution while recording Na currents. For some experiments, 50 nM ATX II (sea anemone toxin), another late INa activator, was used to generate the late component. Both activators generate late components that are large enough that block of the late component by compounds can be measured easily. For the purposes of the screening, late INa is defined as the mean current between 225 ms and 250 ms after stepping to −20 mV to activate Na channels. After establishing the whole cell recording configuration, late INa activators were added to each well 4 times over a 16-17 minute period so that the late component of the Na current reached a stable value. Compounds were then added (typically at 10 μM), in the presence of late INa activator, with 3 additions over the course of 7 or 8 minutes. […]
In the case of `O=C1CCc2cc(-c3ccc(Cl)c(C(F)(F)F)c3)ccc2N1` [Compound 10, 6-[4-chloro-3-(trifluoromethyl)phenyl]-3,4-dihydroquinolin-2(1H)-one], the “Late INa % blk (1 μM test cmpd)” value is reported as 40%. In the case of `CCOC(=O)CN1C(=O)CCc2cc(-c3cccc(OC(F)(F)F)c3)ccc21` [Compound 24, ethyl {2-oxo-6-[3-(trifluoromethoxy)phenyl]-3,4-dihydroquinolin-1(2H)-yl}acetate], the “Late INa % blk (1 μM test cmpd)” value is reported as 44%. In the case of `CC(C)(C)OC(=O)CN1C(=O)CCc2cc(-c3ccc(F)cc3F)ccc21` [Compound 30, tert-butyl [6-(2,4-difluorophenyl)-2-oxo-3,4-dihydroquinolin-1(2H)-yl]acetate], the “Late INa % blk (1 μM test cmpd)” value is reported as 47.9%. For `CC(C)(C)OC(=O)CN1C(=O)CCc2cc(-c3ccc(F)cc3)ccc21` [Compound 33, tert-butyl [6-(4-fluorophenyl)-2-oxo-3,4-dihydroquinolin-1(2H)-yl]acetate], the “Late INa % blk (1 μM test cmpd)” value was 38.1%.

Same assay, conditions: 10 μM test compound; HEK293 cells expressing hNav1.5; late INa generated with 10 μM Tefluthrin (some experiments 50 nM ATX II)
In the case of `CC(C)(C)OC(=O)CN1C(=O)CCc2cc(-c3ccc(C(F)(F)F)cc3)ccc21` [Compound 45, tert-butyl {2-oxo-6-[4-(trifluoromethyl)phenyl]-3,4-dihydroquinolin-1(2H)-yl}acetate], the “Late INa % blk (10 μM test cmpd)” value is reported as 64%.

Same assay, conditions: HEK293, 10 μM test compound; HEK293 cells expressing hNav1.5; late INa generated with 10 μM Tefluthrin (some experiments 50 nM ATX II); read-out: Late INa % blk (10 μM test cmpd)
`NC(=O)c1ccc(-c2ccc3c(c2)CCC(=O)N3)cc1` [Compound 2, 4-(2-oxo-1,2,3,4-tetrahydroquinolin-6-yl)benzamide] was tested, and the inhibition at 10 µM was 16%. Compound `O=C1CCc2cc(-c3ccc(F)cc3)ccc2N1` [Compound 3, 6-(4-fluorophenyl)-3,4-dihydroquinolin-2(1H)-one] has an inhibition at 10 µM of 29%. `N#Cc1ccc(-c2ccc3c(c2)CCC(=O)N3)cc1` [Compound 5, 4-(2-oxo-1,2,3,4-tetrahydroquinolin-6-yl)benzonitrile] was tested, and the inhibition at 10 µM was 30%. For `NC(=O)c1cccc(-c2ccc3c(c2)CCC(=O)N3)c1` [Compound 6, 3-(2-oxo-1,2,3,4-tetrahydroquinolin-6-yl)benzamide], the inhibition at 10 µM was 23%. Compound `O=C1CCc2cc(-c3ccccc3F)ccc2N1` [Compound 7, 6-(2-fluorophenyl)-3,4-dihydroquinolin-2(1H)-one] has an inhibition at 10 µM of 52%. Compound `CC(=O)c1cccc(-c2ccc3c(c2)CCC(=O)N3)c1` [Compound 8, 6-(3-acetylphenyl)-3,4-dihydroquinolin-2(1H)-one] has an inhibition at 10 µM of 22%. `O=C1CCc2cc(-c3ccc(C(F)(F)F)cc3)ccc2N1` [Compound 9, 6-[4-(trifluoromethyl)phenyl]-3,4-dihydroquinolin-2(1H)-one] showed an inhibition at 10 µM of 62%. `O=C1CCc2cc(-c3ccc(Cl)c(C(F)(F)F)c3)ccc2N1` [Compound 10, 6-[4-chloro-3-(trifluoromethyl)phenyl]-3,4-dihydroquinolin-2(1H)-one] was tested, and the inhibition at 10 µM was 66%. `O=C1CCc2cc(-c3ccc(F)cc3F)ccc2N1` [Compound 11, 6-(2,4-difluorophenyl)-3,4-dihydroquinolin-2(1H)-one] was tested, and the inhibition at 10 µM was 54%. With `N#Cc1cc(-c2ccc3c(c2)CCC(=O)N3)ccc1F` [Compound 12, 2-fluoro-5-(2-oxo-1,2,3,4-tetrahydroquinolin-6-yl)benzonitrile] the inhibition at 10 µM was 27%. `O=C1CCc2cc(-c3cccc(C(F)(F)F)c3)ccc2N1` [Compound 13, 6-[3-(trifluoromethyl)phenyl]-3,4-dihydroquinolin-2(1H)-one] gave an inhibition at 10 µM of 70%. `O=C1CCc2cc(-c3ccc(F)cc3F)ccc2N1CCO` [Compound 16, 6-(2,4-difluorophenyl)-1-(2-hydroxyethyl)-3,4-dihydroquinolin-2(1H)-one] gave an inhibition at 10 µM of 24%. In the case of `O=C1CCc2cc(-c3ccc(C(F)(F)F)c(F)c3)ccc2N1` [Compound 19, 6-(3-fluoro-4-(trifluoromethyl)phenyl)-3,4-dihydroquinolin-2(1H)-one], the inhibition at 10 µM is reported as 31%. `CCOC(=O)CN1C(=O)CCc2cc(-c3ccc(F)cc3F)ccc21` [Compound 22, ethyl [6-(2,4-difluorophenyl)-2-oxo-3,4-dihydroquinolin-1(2H)-yl]acetate] gave an inhibition at 10 µM of 67%. `CCOC(=O)CN1C(=O)CCc2cc(-c3ccc(F)c(F)c3)ccc21` [Compound 23, ethyl [6-(3,4-difluorophenyl)-2-oxo-3,4-dihydroquinolin-1(2H)-yl]acetate] showed an inhibition at 10 µM of 33%. `CCOC(=O)CN1C(=O)CCc2cc(-c3cccc(OC(F)(F)F)c3)ccc21` [Compound 24, ethyl {2-oxo-6-[3-(trifluoromethoxy)phenyl]-3,4-dihydroquinolin-1(2H)-yl}acetate] gave an inhibition at 10 µM of 74%. In the case of `O=C1CCc2cc(-c3ccc(F)cc3F)ccc2N1CC(F)(F)F` [Compound 28, 6-(2,4-difluorophenyl)-1-(2,2,2-trifluoroethyl)-3,4-dihydroquinolin-2(1H)-one], the inhibition at 10 µM is reported as 18%. Work on `CC(C)(C)OC(=O)CN1C(=O)CCc2cc(-c3ccc(F)cc3F)ccc21` [Compound 30, tert-butyl [6-(2,4-difluorophenyl)-2-oxo-3,4-dihydroquinolin-1(2H)-yl]acetate] yielded an inhibition at 10 µM of 86%. With `NC(=O)CN1C(=O)CCc2cc(-c3ccc(OC(F)(F)F)cc3)ccc21` [Compound 31, 2-{2-oxo-6-[4-(trifluoromethoxy)phenyl]-3,4-dihydroquinolin-1(2H)-yl}acetamide] the inhibition at 10 µM was 26%. For `O=C(CN1C(=O)CCc2cc(-c3ccc(C(F)(F)F)cc3)ccc21)N1CCOCC1` [Compound 32, 1-[2-(morpholin-4-yl)-2-oxoethyl]-6-[4-(trifluoromethyl)phenyl]-3,4-dihydroquinolin-2(1H)-one], the inhibition at 10 µM was 27%. Work on `CC(C)(C)OC(=O)CN1C(=O)CCc2cc(-c3ccc(F)cc3)ccc21` [Compound 33, tert-butyl [6-(4-fluorophenyl)-2-oxo-3,4-dihydroquinolin-1(2H)-yl]acetate] yielded an inhibition at 10 µM of 77%. With `CC(C)(C)c1nc(CN2C(=O)CCc3cc(-c4ccc(F)cc4)ccc32)no1` [Compound 35, 1-[(5-tert-butyl-1,2,4-oxadiazol-3-yl)methyl]-6-(4-fluorophenyl)-3,4-dihydroquinolin-2(1H)-one] the inhibition at 10 µM was 69%. `O=C1CCc2cc(-c3ccc(OC(F)(F)F)cc3)ccc2N1Cc1cccnc1` [Compound 37, 1-(pyridin-3-ylmethyl)-6-[4-(trifluoromethoxy)phenyl]-3,4-dihydroquinolin-2(1H)-one] gave an inhibition at 10 µM of 19%. For `O=C1CCc2cc(-c3ccc(Oc4ccccc4)cc3)ccc2N1` [Compound 38, 6-(4-phenoxyphenyl)-3,4-dihydroquinolin-2(1H)-one], the inhibition at 10 µM was 53%. `CC(C)(C)OC(=O)CN1C(=O)CCc2cc(-c3ccc(Cl)cc3)ccc21` [Compound 40, tert-butyl [6-(4-chlorophenyl)-2-oxo-3,4-dihydroquinolin-1(2H)-yl]acetate] showed an inhibition at 10 µM of 64%. `N#Cc1cccc(-c2ccc3c(c2)CCC(=O)N3)c1` [Compound 41, 3-(2-oxo-1,2,3,4-tetrahydroquinolin-6-yl)benzonitrile] showed an inhibition at 10 µM of 12%. Compound `CC1(C)CC(=O)Nc2ccc(-c3ccc(C(F)(F)F)cc3)cc21` [Compound 42, 4,4-dimethyl-6-[4-(trifluoromethyl)phenyl]-3,4-dihydroquinolin-2(1H)-one] has an inhibition at 10 µM of 19%. Compound `CC(C)(C)OC(=O)CN1C(=O)CCc2cc(-c3ccc(OC(F)(F)F)cc3)ccc21` [Compound 50, tert-butyl {2-oxo-6-[4-(trifluoromethoxy)phenyl]-3,4-dihydroquinolin-1(2H)-yl}acetate] has an inhibition at 10 µM of 76%. With `O=C(O)CN1C(=O)CCc2cc(-c3ccc(OC(F)(F)F)cc3)ccc21` [Compound 51, {2-oxo-6-[4-(trifluoromethoxy)phenyl]-3,4-dihydroquinolin-1(2H)-yl}acetic acid] the inhibition at 10 µM was 14%. With `CC(C)(C)OC(=O)CN1C(=O)CCc2cc(-c3cccc(Cl)c3)ccc21` [Compound 53, tert-butyl [6-(3-chlorophenyl)-2-oxo-3,4-dihydroquinolin-1(2H)-yl]acetate] the inhibition at 10 µM was 73%. `CCOC(=O)CN1C(=O)CCc2cc(-c3ccc(C(F)(F)F)cc3)ccc21` [Compound 54, ethyl {2-oxo-6-[4-(trifluoromethyl)phenyl]-3,4-dihydroquinolin-1(2H)-yl}acetate] was tested, and the inhibition at 10 µM was 13%.
